# Measured values reported in paper PMC9180170, “Amentoflavone Promotes Cellular Uptake and Degradation of Amyloid-Beta in Neuronal Cells” (International Journal of Molecular Sciences, 2022).
# How the values were obtained:
# [1] = system: N2a cells; experiment: Aβ uptake assay with pharmacologic inhibitors of endocytosis; format: cell-based, mouse; conditions: for effect on TAMRA-Aβ1-40 uptake with or without AMF (in words): in the presence or absence of 10 μM AMF, heparin 20 U/mL, cytochalasin D 0.4 or 2 μg/mL
# Description: (§1) The Aβ uptake assay was performed as described, with modifications. N2a cells were seeded in a 24-well culture plate (2 × 10^5 cells/well) the day prior to the experiments. The next day (cell density at near confluency), cells were rinsed twice with warmed (37 °C) DMEM and incubated in DMEM containing 0.1% bovine serum albumin, 200 nM fluorescently labeled Aβ in the presence or absence of various concentrations of test compounds in a final volume of 200 µL. Cells were then incubated at 37 °C for three hours in the humidified CO2 incubator. The culture plate was placed on ice and the reaction medium was collected in a 1.5-mL microcentrifuge tube. Cells were rinsed twice with phosphate-buffered saline (PBS) containing 137 mM NaCl, 2.7 mM KCl, 10 mM Na2HPO4, and 1.8 mM KH2PO4 (pH: 7.4). To cleave cell surface-bound Aβ and extracellular matrix proteins, cells were treated with 0.05% trypsin in 200 µL PBS at room temperature on an orbital shaker for 5 min. Detached cells were transferred to a microcentrifuge tube and centrifuged at 5000× g for 5 min using a bench-top centrifuge (Thermo Fisher Scientific, Waltham, MA, USA). The supernatant and cell pellet were separated and kept at −80 °C until analysis. Cells were lysed in a buffer containing 20 mM HEPES (pH 7.4), 7.5 mM MgCl2, 1% sodium dodecyl sulfate, 1% Triton X-100, and Complete protease inhibitor cocktail (Sigma-Aldrich, St. Louis, MO, USA). The cell lysate was centrifuged at 10,000× g at 4 °C for 10 min. The fluorescent intensity was measured at λEX = 490 and λEM = 520 for FAM, and λEX = 545 and λEM = 575 for TAMRA using a Biotek Synergy HT plate reader (Winooski, VT). Protein concentrations of the cell lysates were determined using a BCA assay kit (Sigma-Aldrich, St. Louis, MO, USA). The fluorescent intensity of each sample was used to calculate an amount of Aβ in pmole and normalized to protein content. Cellular uptake of Aβ was expressed as pmole/mg protein.
# To examine the role of receptor-mediated endocytosis on AMF-induced promotion of Aβ1-40 uptake, we performed the Aβ uptake assay utilizing pharmacologic inhibitors of endocytosis. […] Thirty minutes later, cells were subjected to the Aβ uptake assay with or without 10 μM AMF as described above.
# [2] = system: BV2 microglial cells; experiment: Aβ uptake assay in BV2 microglia; format: cell-based, mouse; conditions: 200 nM TAMRA-Aβ1-40, 3 h, 37 °C, three independent experiments
# Description: (§2) Figure 7 Amentoflavone promotes the cellular uptake of Aβ peptide in glial cells. Mouse BV2 microglial cells (A) and immortalized astrocytes (B) were incubated with or without 2 or 10 μM amentoflavone (AMF) plus 200 nM TAMRA Aβ1-40 for three hours at 37 °C. The cells were harvested, and the fluorescent intensity of TAMRA was determined by fluorometry.
# (§3) N2a cells were grown in Dulbecco’s Modified Eagle Medium (DMEM) supplemented with 10% fetal bovine serum, 100 U/mL penicillin and 100 µg/mL streptomycin at 37 °C in a humidified CO2 incubator (Thermo Fisher Scientific, Waltham, MA, USA). Cells at less than five passages were used in the experiments. The immortalized BV-2 murine microglial cell line was grown and maintained in DMEM containing antibiotics and 2% fetal bovine serum. The immortalized mouse astrocyte cell line was kindly gifted by David Holtzman at Washington University in St. Louis and maintained in DMEM containing antibiotics and 10% fetal bovine serum.
# (§4) The Aβ uptake assay was performed as described, with modifications. […] The fluorescent intensity was measured at λEX = 490 and λEM = 520 for FAM, and λEX = 545 and λEM = 575 for TAMRA using a Biotek Synergy HT plate reader (Winooski, VT). Protein concentrations of the cell lysates were determined using a BCA assay kit (Sigma-Aldrich, St. Louis, MO, USA). […] Cellular uptake of Aβ was expressed as pmole/mg protein.
# [3] = system: N2a cells; experiment: Aβ uptake assay with fluorescently labeled Aβ in N2a cells; format: cell-based, mouse; conditions: for increase in Aβ1-40 uptake: fluorometry; for effect on cellular uptake of TAMRA-Aβ1-40 (in words): 200 nM TAMRA-Aβ1-40, various concentrations of compound
# Description: Fluorescent conjugated Aβ peptides were ≥95% in purity as determined by the HPLC method per the vendor (AnaSpec; Fremont, CA, USA). These peptides were dissolved in dimethyl sulfoxide to make 100 μM stock solutions, aliquoted, and stored at −80 °C until use. The fluorescent intensity and protein concentration of each peptide was determined as described below to calculate their specific activities (fluorescent intensity per mg of the conjugated peptide).
# as §1
# [4] = system: N2a cells; experiment: Immunoblotting of internalized Aβ1-40 in cell lysates; format: cell-based, mouse; conditions: for effect on intracellular levels of full-length (~4-kDa) monomeric Aβ1-40: N2a cells, unlabeled Aβ1-40, 3 h, 10 μM AMF or leupeptin 100 μg/mL, SDS-PAGE and immunoblotting, normalized to α-tubulin
# Description: To examine the integrity of Aβ1-40 taken up into neuronal cells, N2a cells were treated with the lysosomal enzyme inhibitor, leupeptin (100 μg/mL), unlabeled Aβ1-40 peptide in the presence or absence of AMF and for 3 h, and cell lysates were subjected to SDS-PAGE followed by immunoblotting with an anti-Aβ1-40 antibody (Figure 4A,B). We observed that the intracellular levels of the full-length (~4-kDa), monomeric Aβ1-40 was increased in the presence of AMF (Figure 4A,B). […] The internalized Aβ1-40 was almost completely degraded within 3 h when N2a cells were incubated with Aβ1-40 for 3 h followed by incubation in the Aβ1-40-free culture medium (washout) for an additional 3 h (Figure 4A,B).
# An equal amount of protein samples (5 µg/lane) was separated on a 4–20% gradient tris-tricine gel (Bio-Rad, Hercules, CA, USA) per our published protocol. The gel was transferred to a nitrocellulose membrane (Bio-Rad) at 4 °C for 3 h. Blots were blocked with PBS containing 5% dry milk for 1 h and incubated in PBS solution containing an anti-Aβ antibody HJ2 (1:2000 dilution) or anti-α-tubulin antibody (1:5000 dilution, Sigma-Aldrich). After washing, blots were incubated with goat anti-mouse IgG conjugated with horseradish peroxidase (Bio-Rad, Hercules, CA, USA). The signal was visualized using the HRP chemiluminescent kit (ThermoFisher Scientific, Waltham, MA, USA), and photographic images were taken using a Syngene gel imaging system (Frederick, MD, USA).
# [5] = system: immortalized astrocytes; experiment: Aβ uptake assay in immortalized astrocytes; format: cell-based; conditions: immortalized mouse astrocytes, 2 or 10 μM AMF, 200 nM TAMRA-Aβ1-40, 3 h
# Description: as §2, §3, §4
# [6] = system: N2a cells; experiment: Lactate dehydrogenase (LDH) activity assay for cytotoxicity; format: cell-based, mouse; conditions: 24 h
# Description: The cytotoxicity of Aβ species in N2a cells was assessed using an LDH activity assay kit according to the manufacturer’s protocol (Sigma-Aldrich, St. Louis, MO, USA). Briefly, the Aβ uptake assay was performed as described above using FAM-Aβ1-40 or FAM-Aβ1-42. Twenty-four hours later, the incubation medium was transferred to a microcentrifuge tube and spun at 10,000× g for 5 min to remove cell debris. Triplicate samples of the assay medium were added with an equal volume of LDH master reaction mixture (50 µL/well) to each well of a 96-well plate. The optical density was measured at 37 °C for 30 min at a 5-min interval at a wavelength of 450 nm using a plate reader (Biotek, Winooski, VT, USA).
# [7] = system: N2a cells; experiment: Aβ uptake assay with fluorescently labeled Aβ in N2a cells; format: cell-based, mouse; conditions: 200 nM TAMRA-Aβ1-40, 10 μM AMF, one, three and six hours, TAMRA fluorescence liberated by trypsin digestion
compound,measurement,setting,value
"O=c1cc(-c2ccc(O)c(-c3c(O)cc(O)c4c(=O)cc(-c5ccc(O)cc5)oc34)c2)oc2cc(O)cc(O)c12 [AMF, amentoflavone]","TAMRA-Aβ1-40 uptake with AMF, no inhibitor","[1]; 10 μM AMF, 200 nM TAMRA-Aβ1-40, 3 h, mean ± S.E.M., three independent experiments",3.01 ± 0.22 pmole/mg protein
same,increase in intracellular levels of TAMRA-Aβ1-40,[2]; 2 μM AMF,2.2 fold
same,increase in intracellular levels of TAMRA-Aβ1-40,[2]; 10 μM AMF,3.0 fold
same,effect on intracellular accumulation of FAM-Aβ1-40,"[3]; 200 nM FAM-Aβ1-40, various concentrations of AMF, 3 h",increased
same,cellular uptake of FAM-Aβ1-42 with AMF,"[3]; 200 nM FAM-Aβ1-42 plus 10 μM AMF, 3 h, mean ± S.E.M. (n = 4)",7.52 ± 0.50 pmole/mg protein
same,effect on internalization of the inverted peptide FAM-Aβ42-1,"[3]; 200 nM FAM-Aβ42-1, 10 μM AMF, 3 h",no effect
same,increase in Aβ1-40 uptake,"[3]; 200 nM TAMRA-Aβ1-40, 1 μM compound, 3 h, 37 °C, mean ± S.E.M. (n = 4)",1.48 ± 0.05 fold
same,increase in Aβ1-40 uptake,"[3]; 200 nM TAMRA-Aβ1-40, 3 μM compound, 3 h, 37 °C, mean ± S.E.M. (n = 4)",2.48 ± 0.18 fold
same,increase in Aβ1-40 uptake,"[3]; 200 nM TAMRA-Aβ1-40, 10 μM compound, 3 h, 37 °C, mean ± S.E.M. (n = 4)",3.64 ± 1.12 fold
same,effect on cellular uptake of TAMRA-Aβ1-40 (in words),[3]; 3 h,most potent activity
same,concentration of TAMRA-Aβ1-40 in the culture medium with AMF,"[3]; 200 nM TAMRA-Aβ1-40 plus 10 μM AMF, after 3 h, mean ± S.E.M. (n = 4)",170 ± 1.6 nM
same,effect on intracellular levels of full-length (~4-kDa) monomeric Aβ1-40,[4],increased
same,effect on cellular uptake of TAMRA-Aβ1-40 in astrocytes (in words),[5],significantly increased to a similar extent
same,effect on FAM-Aβ1-42-induced LDH release,"[6]; 200 nM FAM-Aβ1-42, co-treatment with 1, 3 and 10 μM AMF",significantly inhibited
same,effect on TAMRA-Aβ1-40 binding to cell membrane,[7],significantly increased
"O=C(O[C@@H]1Cc2c(O)cc(O)cc2O[C@@H]1c1cc(O)c(O)c(O)c1)c1cc(O)c(O)c(O)c1 [EGCG, (-)-epigallocatechin gallate, reference compound]",effect on cellular uptake of TAMRA-Aβ1-40 (in words),[3]; 3 h,little to no effect
"O=c1cc(-c2ccc(O)cc2)oc2cc(O)cc(O)c12 [apigenin, reference compound]",effect on cellular uptake of TAMRA-Aβ1-40 (in words),[3]; 3 h,little to no effect
C=C1[C@@H](C)[C@H]2[C@H](Cc3ccccc3)NC(=O)[C@]23[C@H](OC(C)=O)/C=C/[C@@](C)(O)C(=O)[C@@H](C)C/C=C/[C@H]3[C@@H]1O [cytochalasin D],effect on TAMRA-Aβ1-40 uptake with or without AMF (in words),"[1]; 200 nM TAMRA-Aβ1-40, 3 h",not blocked
"CC(=O)N[C@@H](CC(C)C)C(=O)N[C@@H](CC(C)C)C(=O)N[C@H](C=O)CCCNC(=N)N [leupeptin, reference compound]",effect on AMF-induced promotion of Aβ1-40 uptake,"[3]; TAMRA-Aβ1-40, leupeptin plus 10 μM AMF, peptide remaining in the culture medium",did not influence
same,effect on intracellular levels of full-length (~4-kDa) monomeric Aβ1-40,[4],significantly increased
"O=c1c(O)c(-c2ccc(O)c(O)c2)oc2cc(O)cc(O)c12 [quercetin, reference compound]",effect on cellular uptake of TAMRA-Aβ1-40 (in words),[3]; 3 h,little to no effect
"ApoE particles: astrocyte-secreted apolipoprotein E particles, inhibitor of LRP-1-mediated endocytosis",inhibition of AMF-induced TAMRA-Aβ1-40 uptake,"[1]; 200 nM ApoE particles plus 10 μM AMF, 3 h",~ 30%
same,decrease of cellular uptake of TAMRA-Aβ1-40,"[1]; 200 nM ApoE particles, no AMF, 3 h",~ 75%
Aβ1-40: unlabeled human Aβ1-40 peptide,time to almost complete degradation of internalized Aβ1-40,"[4]; N2a cells incubated with Aβ1-40 for 3 h, then Aβ1-40-free culture medium (washout), immunoblotting",≤ 3 h
FAM-Aβ1-40: 5-carboxyfluorescein-labeled Aβ1-40 [reference compound],cytotoxicity by LDH release (in words),"[6]; 200 nM peptide, in the absence or presence of AMF",did not cause cell death
FAM-Aβ1-42: FAM-labeled Aβ1-42 [reference compound],cellular uptake of labeled peptide without AMF,"[3]; 200 nM peptide, DMEM with 0.1% BSA, 3 h, 37 °C, fluorometry of cell lysate after trypsin, mean ± S.E.M. (n = 4)",3.34 ± 0.84 pmole/mg protein
TAMRA-Aβ1-40: Aβ1-40 conjugated with a fluorophore 5-carboxytetramethylrhodamine [reference compound],concentration of TAMRA-Aβ1-40 in the culture medium without AMF,"[3]; 200 nM TAMRA-Aβ1-40 alone (vehicle), after 3 h, mean ± S.E.M. (n = 4)",189 ± 0.6 nM
fucoidan,effect on TAMRA-Aβ1-40 uptake without AMF (in words),"[1]; 200 nM TAMRA-Aβ1-40, 3 h, no AMF",no effect
same,TAMRA-Aβ1-40 uptake with inhibitor in the presence of AMF,"[1]; 100 μM fucoidan (30 min pretreatment) plus 10 μM AMF, 200 nM TAMRA-Aβ1-40, 3 h, mean ± S.E.M., three independent experiments",1.98 ± 0.17 pmole/mg protein
heparin,effect on TAMRA-Aβ1-40 uptake with or without AMF (in words),"[1]; 200 nM TAMRA-Aβ1-40, 3 h",in part attenuated
